Results taken from the CheMixHub ionic liquid set.
± gives the uncertainty stated by the source.

Experiment: xn = mol fraction of the nth substance listed

CC[n+]1ccn(C)c1.N#C[N-]C#N + CC[n+]1ccn(C)c1.N#C[S-]
100 kPa
Conditions	electrical conductivity [S/m]	viscosity [mPa·s]
298.15 K, x2 = 0.2585	2.68 ± 0.11	16.36 ± 0.69
308.15 K, x2 = 0.2585	3.45 ± 0.14	12.4 ± 0.53
318.15 K, x2 = 0	4.52 ± 0.18	8.93 ± 0.37
318.15 K, x2 = 0.7603	4.01 ± 0.16	11.79 ± 0.54
323.15 K, x2 = 0.5112	4.62 ± 0.19	9.51 ± 0.42
328.15 K, x2 = 0.2585	–	7.87 ± 0.33
333.15 K, x2 = 0	–	6.37 ± 0.26
338.15 K, x2 = 0.2585	–	6.49 ± 0.28
348.15 K, x2 = 0.5112	–	5.87 ± 0.26
353.15 K, x2 = 0.7603	–	5.7 ± 0.26

CC[n+]1ccn(C)c1.N#C[N-]C#N + OCC(F)(F)F
100 kPa
Conditions	viscosity [mPa·s]
298.15 K, x1 = 0.2936	4.06 ± 0.6
298.15 K, x1 = 0.3935	5.03 ± 0.6
303.15 K, x1 = 0.1031	2.18 ± 0.6
303.15 K, x1 = 0.5915	6.32 ± 0.6
308.15 K, x1 = 0.8915	8.72 ± 0.61
313.15 K, x1 = 1	8.86 ± 0.61
318.15 K, x1 = 0.1957	2.07 ± 0.6
318.15 K, x1 = 0.2936	2.62 ± 0.6

O + CCCCCCCCCCCCCCn1cc[n+](C)c1.[Br-] + CC[N+](CC)(CC)CC.[Br-]
101 kPa, frequency 0.001 MHz, x2 = 0, x3 = 0
Conditions	electrical conductivity [S/m]
298.15 K	0.00046 ± 7e-05
308.15 K	0.00115 ± 7e-05
318.15 K	0.00157 ± 8e-05

CCCC[n+]1ccn(C)c1.F[B-](F)(F)F + ClC(Cl)Cl
298.15 K, 101 kPa, x2 = 0
Conditions	electrical conductivity [S/m]	viscosity [mPa·s]
–	0.194 ± 0.023	116 ± 40

CC[n+]1ccn(C)c1.N#C[N-]C#N + CCO + O
viscosity [mPa·s], 101 kPa
Conditions	298.15 K	313.15 K	328.15 K	343.15 K
x2 = 0.0957, x3 = 0.7595	3.15 ± 0.13	2.21 ± 0.09	–	–
x2 = 0.1156, x3 = 0.8359	2.25 ± 0.09	1.52 ± 0.06	–	–
x2 = 0.1191, x3 = 0.3486	6.67 ± 0.27	4.77 ± 0.2	3.64 ± 0.15	2.85 ± 0.12
x2 = 0.2007, x3 = 0.7083	2.87 ± 0.12	2 ± 0.08	1.42 ± 0.06	1.08 ± 0.04
x2 = 0.2484, x3 = 0.6015	3.39 ± 0.14	2.36 ± 0.1	1.74 ± 0.07	1.34 ± 0.06
x2 = 0.2507, x3 = 0.6986	2.65 ± 0.11	1.76 ± 0.07	1.25 ± 0.05	0.94 ± 0.04
x2 = 0.2881, x3 = 0.404	4.63 ± 0.19	3.33 ± 0.14	2.52 ± 0.11	2.02 ± 0.08
x2 = 0.379, x3 = 0.1385	5.89 ± 0.25	4.31 ± 0.18	3.3 ± 0.14	2.63 ± 0.11
x2 = 0.4202, x3 = 0.3032	4 ± 0.17	2.92 ± 0.12	2.23 ± 0.1	1.77 ± 0.08
x2 = 0.4889, x3 = 0.4093	2.77 ± 0.12	1.95 ± 0.08	–	–
x2 = 0.6949, x3 = 0.2046	2.27 ± 0.1	–	–	–

O + CCCCCCCCCCCCCC[n+]1ccccc1.O=C([O-])C(O)c1ccccc1 + CC(C)[C@H](N)C(=O)O
101 kPa, x2 = 0, x3 = 0
Conditions	electrical conductivity [S/m]
293.15 K	0.00012
298.15 K	0.00015
303.15 K	0.00016
308.15 K	0.00017
313.15 K	0.00019

O + CCCCCCCCCCCCCC[n+]1ccccc1.O=C([O-])C(O)c1ccccc1
101 kPa, x2 = 0
Conditions	electrical conductivity [S/m]
293.15 K	0.00012
298.15 K	0.00015
303.15 K	0.00016
308.15 K	0.00017
313.15 K	0.00019

O + CCCCCCCCCCCCCCCC[n+]1ccccc1.[Cl-]
Conditions	electrical conductivity [S/m]
308.15 K, 101 kPa, x2 = 0	6.7e-05 ± 1e-06

CC1COC(=O)O1 (stereo not drawn) + COCCn1cc[n+](C)c1.N#C[S-]
101 kPa, x2 = 0
Conditions	viscosity [mPa·s]
288.15 K	3.06 ± 0.61
293.15 K	2.75 ± 0.55
298.15 K	2.47 ± 0.49
303.15 K	2.25 ± 0.45
308.15 K	2.05 ± 0.41
313.15 K	1.88 ± 0.38
318.15 K	1.73 ± 0.35
323.15 K	1.6 ± 0.32
328.15 K	1.49 ± 0.3
333.15 K	1.39 ± 0.28
338.15 K	1.29 ± 0.26
343.15 K	1.21 ± 0.24

NCC(=O)NCC(=O)O + CCCCCCCCCCCC[N+](C)(C)C.[Br-] + O
100 kPa
Conditions	electrical conductivity [S/m]
293.15 K, x1 = 0.0001801, x2 = 0.0003553	0.093 ± 0.01
293.15 K, x1 = 0.0001801, x2 = 0.0003787	0.095 ± 0.01
293.15 K, x1 = 0.0001801, x2 = 0.0004256	0.099 ± 0.011
293.15 K, x1 = 0.0001802, x2 = 2.706e-05	0.0098 ± 0.0013
298.15 K, x1 = 9.009e-05, x2 = 2.704e-05	0.0082 ± 0.0011
298.15 K, x1 = 0.0001801, x2 = 0.0003553	0.096 ± 0.01
298.15 K, x1 = 0.0001801, x2 = 0.0003787	0.097 ± 0.01
298.15 K, x1 = 0.0001801, x2 = 0.0004021	0.099 ± 0.01
303.15 K, x1 = 1.802e-05, x2 = 2.703e-05	0.0078 ± 0.001
303.15 K, x1 = 9.009e-05, x2 = 2.704e-05	0.0097 ± 0.0013
308.15 K, x1 = 1.802e-05, x2 = 2.703e-05	0.0082 ± 0.0011
308.15 K, x1 = 9.005e-05, x2 = 0.0004487	0.098 ± 0.01
313.15 K, x1 = 1.801e-05, x2 = 0.0005368	0.093 ± 0.01
313.15 K, x1 = 1.802e-05, x2 = 2.703e-05	0.0087 ± 0.0013
313.15 K, x1 = 9.006e-05, x2 = 0.0004019	0.098 ± 0.01
313.15 K, x1 = 0.0001801, x2 = 0.0003318	0.099 ± 0.01

CC(=O)[O-].CCCC[n+]1ccn(C)c1 + NCCN1CCNCC1 + O
viscosity [mPa·s], 101 kPa
Conditions	298.15 K	303.15 K	308.15 K	313.15 K	318.15 K	323.15 K	328.15 K	333.15 K
x1 = 0.03479, x2 = 0	2.23 ± 0.14	2.18 ± 0.14	2.16 ± 0.14	2.13 ± 0.14	1.74 ± 0.14	1.58 ± 0.14	1.51 ± 0.14	1.24 ± 0.14
x1 = 0.03897, x2 = 0	2.35 ± 0.14	2.29 ± 0.14	2.25 ± 0.14	2.22 ± 0.14	2.11 ± 0.14	2.07 ± 0.14	1.91 ± 0.14	1.86 ± 0.14
x1 = 0.04311, x2 = 0	2.66 ± 0.14	2.63 ± 0.14	2.56 ± 0.14	2.49 ± 0.14	2.29 ± 0.14	2.26 ± 0.14	2.02 ± 0.14	1.97 ± 0.14

CCC[N+]1(C)CCCC1.O=S(=O)([N-]S(=O)(=O)C(F)(F)F)C(F)(F)F + CCCCCC[N+]1(C)CCCC1.O=S(=O)([N-]S(=O)(=O)C(F)(F)F)C(F)(F)F
353.15 K, 101 kPa, x2 = 0
Conditions	electrical conductivity [S/m]	viscosity [mPa·s]
–	1.76 ± 0.18	11.6 ± 1.2
